Results on two substances are retold here after paper PMC2667962 (Biochemistry, 2008).

Experiment [1] in a line: Formation of anhydrous cholesterol crystals seen by DSC. In general terms: DSC measures the heat that a sample takes up or gives off during a temperature scan.
Experiment [2] can be described thus: DSC of the phase transition of pure SOPC with peptide. Conditions: cooling scans, SOPC without peptide 5 °C.

On to “Ac-GWGIK-NH2 [GWGIK, N-acetyl-GWGIK-amide]”, for which the “formation of cholesterol crystals” value in experiment [1] (6/4 ratio of SOPC/cholesterol) is recorded as “no formation of cholesterol crystals”; in experiment [1] (mixtures with 30% cholesterol) it was “small peak corresponding to cholesterol crystals”.

As for LWGIG, the “transition temperature of pure SOPC” value in experiment [2] (5 mol% peptide) turned out to be 4.7 °C; in experiment [2] (10 mol% peptide) it was 4.7 °C; in experiment [2] (15 mol% peptide), 4.5 °C. For the same substance, in experiment [1] (any of the SOPC/cholesterol ratios), the “formation of anhydrous cholesterol crystals” value is recorded as “no formation of anhydrous cholesterol crystals”.
